# How the values were obtained:
# 1420, pancreatic cancer = assay: Cytotoxicity under normoxia, 1420; type: cell-based, human; details: 1420; 1 mM sugar with increasing 2-DG; trypan blue exclusion
# Protocol: (§1) Cell types. The Δ^0 cells were isolated by treating osteosarcoma cell line 143B (wt) with ethidium bromide for prolonged periods, as previously described (9). Because the Δ^0 cells are uridine and pyruvate auxotrophs, they were grown in DMEM (GIBCO, USA) supplemented with 10% fetal calf serum, 50 μg/ml of uridine and 100 mM sodium pyruvate. The SKBR3 cell line was obtained from Dr. Joseph Rosenblatt's laboratory at the University of Miami. The pancreatic cancer cell lines 1420 and 1469, the ovarian cancer cell line SKOV3, the cervical cancer cell line HELA, and the osteosarcoma cell line 143B were purchased from ATCC. The non-small cell lung cancer and small cell lung cancer cell lines were derived from patients by Dr. Niramol Savaraj at the University of Miami. SKBR3 and SKOV3 cells were grown in McCoy's 5A medium; 1420, 1469 and 143B were grown in DMEM (GIBCO, USA); and HELA was grown in MEM (GIBCO, USA). The media was supplemented with 10% fetal bovine serum. All cells were grown under 5% CO2 and 37° C.
# (§2) Cytotoxicity assay. Cells were incubated for 24 hr at 37° C. in 5% CO2 at which time drug treatments began and continued for 72 hr. At this time, attached cells were trypsinized and combined with their respective culture media followed by centrifugation at 400 g for 5 min. The pellets were resuspended in 1 ml of Hanks solution and analyzed by Vi-Cell (Beckman Coulter, USA) cell viability analyzer.
# SKBR3 cells [1] = assay: Growth inhibitory and cytotoxicity assay in SKBR3 cells under normoxia; type: cell-based, human; details: for reversal of 2-DG toxicity by added sugar: SKBR3, 1 mM sugar with increasing 2-DG, trypan blue exclusion; for cytotoxicity measured by trypan blue exclusion: SKBR3, 72 hrs, normal oxygen conditions
# Protocol: Cytotoxicity assay and Rapid DNA Content Analysis. Cells were incubated for 24 hr at 37° C. in 5% CO2 at which time drug treatments began and were continued for 72 hr. At this time, attached cells were trypsinized and combined with their respective culture media followed by centrifugation at 400 g for 5 min. Pellets containing the cells were either resuspended in 1.5 ml of a medium/trypan blue mixture for cytotoxicity assays or propidium iodide/hypotonic citrate staining solution for determining the nuclear DNA content and cell cycle by a Coulter XL flow cytometer. A minimum of 10,000 cells were analyzed to generate a DNA distribution histogram.
# as §2
# tumor cell lines = assay: Toxicity survey of tumor cell lines under normoxic conditions; type: cell-based; details: for toxicity to select tumor cell types: normoxia; for tumor cell lines undergoing significant cell death: 6 mM, normal oxygen tension
# Protocol: as §1, §2
# Grp78 and Grp94 [2] = assay: Western blot of Grp78 and Grp94 in models of hypoxia A, B & C; type: cell-based
# Protocol: (§3) Western Blot analysis. Cells were plated at 10^4 cell cm^−2 and grown under drug treatment for the indicated times. At the end of the treatment period, cells were collected and lysed with 1% SDS in 80 mM Tris-HCL (ph 7.4) buffer supplemented with a proteinase inhibitor cocktail. DNA was fragmented by sonication and protein concentrations were measured by microBCA protein assay kit (Pierce, USA). Samples were mixed with 2× Laemmli sample buffer (Bio-Rad, USA) and run on a SDS-polyacrylamide gel. Gels were transferred to nitrocellulose membranes (Amersham, USA) and probed with anti-KDEL (Stressgen, Canada) (for Grp78 and Grp94); polyclonal anti-CHOP/[…] (Santa Cruz, USA), polyclonal anti-erbB2 (DAKO, USA). Following probing, membranes were washed and incubated with an HRP conjugated secondary antibody. Chemiluminesence was detected by exposure to film. Where indicated, membranes were stripped with Stripping Buffer (Pierce, USA) and reprobed with anti-actin (Sigma, USA) primary antibody. To analyze conconavalin A (ConA) binding, the membranes were incubated with 0.2 μg/ml HRP-conjugated ConA, and chemiluminescence was detected as described.
# Three in vitro models of hypoxia. We previously characterized three models of anaerobiosis as follows: Model A are tumor cells treated with 0.05 μg/ml of oligomycin (a mitochondrial inhibitor of ATP synthase); Model B are cells that are deficient in mitochondrial DNA and Model C are cells treated in an hypoxic (0.5% O^2) chamber (Reming Bioinstruments, Redfield, N.Y.).
# erbB2 = assay: Western blot of erbB2 in SKBR3 cells; type: cell-based, human
# Protocol: as §3
# CHOP/GADD154 = assay: Western blot of CHOP/GADD154 in SKBR3 cells; type: cell-based, human; details: SKBR3, normoxia, 24 hrs; 8 mM sugar analog
# Protocol: as §3
# [3] = tested on: glycoproteins (ConA binding) in SKBR3 cells; assay: HRP-conjugated ConA blot of SKBR3 cell extracts; type: cell-based, human; details: SKBR3, 48 hr, 8 mM sugar analog
# Protocol: as §3
# fowl plague virus = details: chick embryo fibroblasts infected with fowl plague virus; cited from earlier work
# Grp78 and Grp94 [4] = assay: Western blot of Grp78 and Grp94 (unfolded protein response) in SKBR3 cells under normoxia; type: cell-based, human; details: for expression of chaperones Grp78 and Grp94: SKBR3, normoxia, 24 hrs, 8 mM sugar analog, tunicamycin 1 micro g/ml; for up-regulation of GRP 78 and 94, dose dependence: select tumor cells, normoxic conditions
# Protocol: as §3
# SKBR3 cells [5] = assay: ATP quantification assay in SKBR3 cells; type: cell-based, human; details: 6 hours, 2-FDG vs. 2-DG
# Protocol: ATP quantitation assay. The ATP lite kit (Perkin Elmer) can be used to quantify levels of ATP. About 50 μL of cell lysis solution were added to 100 μL of cell suspension in a white-bottom 96-well plate. The plate was incubated at room temperature on a shaker (700 rpm) for five minutes. 50 μL of substrate solution was then added to the wells and shaken (700 rpm) for another five minutes at room temperature. The plate was then dark adapted for ten minutes and measured for luminescence.
# ATP quantification assay. The ATP lite kit (Perkin Elmer) can be used to quantify levels of ATP. About […] of cell lysis solution were added to […] of cell suspension in a white-bottom 96-well plate. The plate was incubated at room temperature on a shaker (700 rpm) for five minutes. About […] solution were then added to the wells and shaken (700 rpm) for another five minutes at room temperature. The plate was then dark adapted for ten minutes and measured for luminescence. To normalize the reduction of ATP production to growth inhibition which results due to treatment with 2-DG or 2-FDG, parallel experiments were run to measure the total protein concentration using a microBCA protein detection kit (Pierce, Rockford, Ill.).
# SKBR3 cells [6] = assay: Lactic acid assay in SKBR3 cells; type: cell-based, human; details: 2 mM, 24 hr, 2-FDG vs. 2-DG
# Protocol: Lactic acid assay. Lactic acid was measured by adding 0.025 ml of deproteinated medium, from treated or non-treated cultures, to a reaction mixture containing 0.1 ml of lactic acid dehydrogenase (1000 units/ml), 2 ml of glycine buffer (glycine, 0.6 mol/L, and hydrazine, pH 9.2), and 1.66 mg/ml NAD. Deproteinization occurred by treating 0.5 ml of medium from test cultures with 1 ml of perchloric acid at 8% w/v, vortexing for 30 s, then incubating this mixture at 4° C. for 5 min, and centrifuging at 1500 g for 10 min. The supernatant was centrifuged three times more, and 0.025 ml of a final clear supernatant was used for lactic acid determinations. Formation of NADH was measured with a Beckman DUr 520 UV/vis spectrophotometer at 340 nm, which directly corresponds to lactic acid levels as determined by a lactate standard curve.
# Lactic acid assay. Lactic acid was measured by adding 0.025 ml of deproteinated medium, from treated or non-treated cultures, to a reaction mixture containing 0.1 ml of lactic dehydrogenase (1000 units/ml), 2 ml of glycine buffer (glycine, 0.6 mol/L, and hydrazine, pH 9.2), and 1.66 mg/ml NAD. […] Formation of NADH was measured with a Beckman DUr 520 UV/vis spectrophotometer at 340 nm, which directly corresponds to lactic acid levels as determined by a lactate standard curve.
# SKBR3 cells [7] = assay: Cytotoxicity in SKBR3 cells under hypoxic conditions; type: cell-based, human; details: 2-FDG vs. 2-DG
# Protocol: as §2, with “Hypoxia. For studies in hypoxic conditions (Model C), cells were seeded and incubated for 24 hr at 37° C. and 5% CO2 as described below for direct cytotoxicity assays. After the 24 hr incubation, cells received drug treatment and were placed in a Pro-Ox in vitro chamber attached to a model 110 oxygen controller ([…] Bioinstruments Co. […] Cytotoxicity” for “Cytotoxicity”
compound,measurement,setting,value
"O=C(CO)[C@@H](O)[C@H](O)[C@H](O)CO [fructose, reference compound]",reversal of 2-DG toxicity by added sugar,"1420, pancreatic cancer",had no effect
same,reversal of 2-DG toxicity by added sugar,SKBR3 cells [1],had no effect
"O=C[C@@H](Cl)[C@@H](O)[C@H](O)[C@H](O)CO [2-CM, 2-deoxy-2-chloro-mannose]",toxicity to select tumor cell types,tumor cell lines,toxic to select tumor cell types growing under normoxia
"O=C[C@@H](F)[C@@H](O)[C@H](O)[C@H](O)CO [2-FDM, 2-deoxy-2-fluoro-mannose]","upregulation of the UPR (Grp78, Grp94)",Grp78 and Grp94 [2]; hypoxia model C,both chaperones are upregulated
same,"upregulation of the UPR (Grp78, Grp94)",Grp78 and Grp94 [2]; hypoxia models A and B,no significant upregulation of the UPR
same,molecular weight of erbB2,erbB2,decreased the molecular weight of erbB2
same,induction of GADD154/CHOP,CHOP/GADD154,induced
same,cytotoxicity measured by trypan blue exclusion,SKBR3 cells [1],toxic
same,rank order in growth inhibiting and killing SKBR3 cells,SKBR3 cells [1]; normoxia,2-DG>2-FDM>>>2-FDG
same,ConA binding of glycoproteins,[3],decrease ConA binding
same,order of potency to inhibit viral glycoprotein synthesis,fowl plague virus,2-DG>2-FDM>2-FDG
same,expression of chaperones Grp78 and Grp94,Grp78 and Grp94 [4],both Grp78 and Grp94 are upregulated
same,"up-regulation of GRP 78 and 94, dose dependence",Grp78 and Grp94 [4],up-regulated by 2-DG and 2-FM in a dose-dependent manner
same,toxicity in 2-DG sensitive and 2-DG resistant cell types,tumor cell lines; 4 mM,caused toxicity in 2-DG sensitive but not 2-DG resistant cell types
same,tumor cell lines undergoing significant cell death,tumor cell lines,6 out of 15
same,toxicity to select tumor cell types,tumor cell lines,toxic to select tumor cell types growing under normoxia
"O=C[C@H](F)[C@@H](O)[C@H](O)[C@H](O)CO [2-FDG, 2-deoxy-2-fluoro-glucose, reference compound]",ATP depletion,SKBR3 cells [5],ATP depletion was more prominent
same,molecular weight of erbB2,erbB2,had no effect
same,induction of GADD154/CHOP,CHOP/GADD154,not
same,inhibition of lactate levels (a measure of glycolysis),SKBR3 cells [6],inhibited lactate levels (a measure of glycolysis) better than the latter
same,cytotoxicity measured by trypan blue exclusion,SKBR3 cells [1],is not
same,rank order in growth inhibiting and killing SKBR3 cells,SKBR3 cells [1]; normoxia,2-DG>2-FDM>>>2-FDG
same,toxicity to SKBR3 cells grown under normoxia (FIG. 1),SKBR3 cells [1]; normoxia,neither of these agents caused toxicity
same,ConA binding of glycoproteins,[3],no reduction in ConA binding
same,toxicity under hypoxic conditions,SKBR3 cells [7],more toxic than 2-DG
same,order of potency to inhibit viral glycoprotein synthesis,fowl plague virus,2-DG>2-FDM>2-FDG
same,expression of chaperones Grp78 and Grp94,Grp78 and Grp94 [4],does not increase the levels of these chaperones as much as 2-DG or 2-FDM
same,"up-regulation of GRP 78 and 94, dose dependence",Grp78 and Grp94 [4],not
same,tumor cell lines undergoing significant cell death,tumor cell lines,not
same,toxicity to select tumor cell types,tumor cell lines,not
same,toxicity to cell types that are sensitive to 2-DG,tumor cell lines; normoxic conditions,shows no toxicity
tunicamycin [reference compound],synthesis of chaperones Grp78 and Grp94,Grp78 and Grp94 [2]; all three hypoxia models (positive control),induce the synthesis of these chaperones in all three models
same,induction of GADD154/CHOP,CHOP/GADD154,induced
same,ConA binding of glycoproteins,[3],decrease ConA binding
same,expression of chaperones Grp78 and Grp94,Grp78 and Grp94 [4],both Grp78 and Grp94 are upregulated
"NC(=O)C(=O)O [oxamate, reference compound]",cytotoxicity measured by trypan blue exclusion,SKBR3 cells [1],not toxic
"C[C@H](O)[C@@H](O)[C@@H](O)[C@H](O)C=O [fucose, reference compound]",reversal of 2-DG toxicity by added sugar,"1420, pancreatic cancer",had no effect
same,reversal of 2-DG toxicity by added sugar,SKBR3 cells [1],had no effect

# Source: US8242167B2, “Mannose derivatives for killing tumor cells” (University of Miami, priority 2006, dated 2012)
